Measurements as given in PubChem BioAssay (NCI).
Several values for one entry are separate records, joined by “and”; a condition that tells them apart may be missing. Identical values can stand only once.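 Cultured in 96-well plates, cells were exposed to test compound for 48 hours across five concentrations. GI50 marks 50% less growth. TGI marks complete inhibition of growth.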

What was measured:
Test in all cases: growth of human tumour cells (NCI), 48 h
[1] = tested on: A549 NSCLC
[2] = tested on: BT-549 breast
[3] = tested on: EKVX NSCLC
[4] = tested on: HCT-116 colon
[5] = tested on: HCT-15 colon
[6] = tested on: HOP-92 NSCLC
[7] = tested on: SF-268 CNS
[8] = tested on: SN12C renal
[9] = tested on: SNB-75 CNS
[10] = tested on: CCRF-CEM leukemia

SMILES	GI50 [1] [µM]	TGI [1]	GI50 [2] [µM]	TGI [2] [µM]	GI50 [3] [µM]	TGI [3]	GI50 [4] [µM]	TGI [4]	GI50 [5] [µM]	TGI [5]	GI50 [6] [µM]	TGI [6] [µM]	GI50 [7] [µM]	TGI [7]	GI50 [8] [µM]	TGI [8]	GI50 [9] [µM]	TGI [9]	TGI [10]	GI50 [10] [µM]
Nc1ccn([C@H]2C[C@@H](O)[C@@H](CO)S2)c(=O)n1	> 100	> 100 µM	> 100	> 100	> 100	> 100 µM	14.1	> 100 µM	11.8	> 100 µM	> 100	> 100	> 100	> 100 µM	> 44.7	> 100 µM	> 44	> 100 µM	–	–
O=C(Nc1cnn2ccc(N3CCC[C@@H]3c3cc(F)ccc3F)nc12)N1CC[C@H](O)C1	> 100	> 100 µM	> 100	> 100	> 100	> 100 µM	> 100	> 100 µM	> 100	> 100 µM	> 100	> 100	> 100	> 100 µM	> 100	> 100 µM	> 100	> 100 µM	–	–
CC(=O)NNc1nc(C)c(C(/C=C/c2ccc(Cl)cc2)=N\NS(=O)(=O)c2ccc(C)cc2)s1	–	> 100 µM	–	–	–	> 100 µM	–	> 100 µM	–	> 100 µM	–	> 100	–	> 100 µM	–	> 100 µM	–	> 100 µM	> 100 µM	–
CCC(C(=O)[O-])C(=O)[O-].CCC(C(=O)[O-])C(=O)[O-].N.N.NCCCCCN.[Pt+4].[Pt+4]	> 100	> 100 µM	–	–	> 100	> 100 µM	> 100	> 100 µM	> 100	> 100 µM	> 100	> 100	> 100	> 100 µM	15	87.3 µM	> 100	> 100 µM	> 100 µM	55.9
C=C(CN1CCN(c2cccc(C(F)(F)F)c2)CC1)c1ccc(C(=O)Nc2ccccc2N)cc1	1.48	> 27.3 µM	0.332	5.06	2.92	19.4 µM	1.14	11.7 µM	0.48	3.62 µM	1.51	17.8	1.43	10.8 µM	2.19	14.5 µM	–	–	> 50 µM	0.335
Cc1ccc(S(=O)(=O)CNC(=S)CCCC(=S)NCS(=O)(=O)c2ccc(C)cc2)cc1	–	> 100 µM	–	–	–	> 100 µM	–	> 100 µM	–	> 100 µM	–	50.3	–	> 100 µM	–	> 100 µM	–	> 100 µM	> 100 µM	–
CC(=O)OCC1OC(OC2CC3C(C)(C)C(OC(C)=O)CC[C@]3(C)C3CCC45CC4(CC[C@H]5C(C)CC(O)C4OC4(C)C)[C@]23C)C(O)C(O)C1O (some centres not stated)	4.26	8.37 µM and 15.2 µM	–	–	> 60	> 60 µM and 11.7 µM	2.14	3.46 µM and 4.42 µM	4.04	6 µM and 13.3 µM	–	6.33	3.67	9.14 µM and 14.5 µM	4.44	8.75 µM and 14.9 µM	3.7	8.23 µM and 12.4 µM	2.3 µM and 5.04 µM	2.19
